How the values were obtained:
[1] = target: T1, dihydroceramide desaturase-1 (DES1) (Gallus gallus, UniProt Q5F3C1); assay type: biochemical
T1 sequence (Q5F3C1 1-323): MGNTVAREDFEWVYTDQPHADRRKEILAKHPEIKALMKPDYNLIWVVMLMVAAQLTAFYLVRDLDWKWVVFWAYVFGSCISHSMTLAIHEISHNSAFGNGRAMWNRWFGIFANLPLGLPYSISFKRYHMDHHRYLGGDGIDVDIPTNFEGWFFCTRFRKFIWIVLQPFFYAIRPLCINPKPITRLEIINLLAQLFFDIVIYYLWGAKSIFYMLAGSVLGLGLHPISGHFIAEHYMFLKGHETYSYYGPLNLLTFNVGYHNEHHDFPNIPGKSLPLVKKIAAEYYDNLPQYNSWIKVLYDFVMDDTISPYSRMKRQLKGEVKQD

[2] = target: DES1 (Homo sapiens, UniProt O15121); assay: retinol isomerase assay in homogenates of transfected […] cells, HPLC; assay type: cell-based
Chain of DES1 (O15121 2-323): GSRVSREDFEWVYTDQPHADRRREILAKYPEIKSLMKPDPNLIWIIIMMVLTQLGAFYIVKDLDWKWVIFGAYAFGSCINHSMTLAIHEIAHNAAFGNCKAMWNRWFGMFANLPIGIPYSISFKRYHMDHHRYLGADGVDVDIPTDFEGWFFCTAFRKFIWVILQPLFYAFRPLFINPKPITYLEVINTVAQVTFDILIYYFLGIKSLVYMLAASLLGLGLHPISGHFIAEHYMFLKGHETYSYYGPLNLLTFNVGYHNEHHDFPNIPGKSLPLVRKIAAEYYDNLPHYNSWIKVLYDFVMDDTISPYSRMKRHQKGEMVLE

[3] = target: T1, dihydroceramide desaturase-1 (DES1); assay: retinol isomerase assay with purified GST-DES1, HPLC of products; assay type: biochemical

Row | Ki [1] [µM] | Structure (SMILES) | retinol isomerase assay in homogenates of transfected 293T cells, HPLC [2] | retinol isomerase assay with purified GST-DES1, HPLC of products [3]
1 | 8.5 | CC1=C(/C=C/C(C)=C/C=C/C(C)=C/C(=O)Nc2ccc(O)cc2)C(C)(C)CCC1 [4-HPR, fenretinide] | – | –
2 | – | CC1=C(/C=C/C(C)=C/C=C/C(C)=C/CO)C(C)(C)CCC1 [all-trans-ROL, all-trans-retinol] | The rate of 11-cis-ROL synthesis was dramatically higher for DES1 versus the other membrane desaturases | Purified GST-DES1 exhibited dramatically higher isomerase-2 activities

— article PMC3522777 (Nature chemical biology, 2012)
